{"source": "paper PMC8306139", "about": "“A Novel Dialkylamino-Functionalized Chalcone, DML6, Inhibits Cervical Cancer Cell Proliferation, In Vitro, via Induction of Oxidative Stress, Intrinsic Apoptosis and Mitotic Catastrophe” (Molecules, 2021)", "assay_type_in_all_cases": "cell-based", "key": {"Bax": {"test_system": "Bax", "test": "Western blot, Bax", "conditions": "OV2008, 5 and 20 μM, 24 h, vs vehicle", "experimental": "(§1) The OV2008 cells were lysed to obtain total cellular protein fractions using Mammalian Protein Extraction Reagent (Catalog # 78501, M-PER™, Thermo Fisher Scientific, Waltham, MA, USA). The cells were seeded in […] at a density of 1 × 10^6 and incubated with 5 or 20 µM of DML6 or 1 µM of doxorubicin (Catalog # T1-2-, TargetMol, Boston, MA, USA) (a positive control) for 24 h. The following day, the cells were washed with ice-cold PBS, scraped using a cell scrapper and collected in Eppendorf tubes. The tubes were centrifuged at 1500 RPM at 4 °C for 5 min. The solution was discarded and replaced with 70 µL of the cell lysis buffer (M-PER reagent, 100 mM Sodium Orthovanadate (NaOV) at a final concentration of 2.5 mM) and a 100X protease inhibitor cocktail (Catalog # P8340, Sigma-Aldrich, St. Louis, MO, USA, final concentration of 1X, containing of aprotinin, bestatin, E-64, leupeptin and pepstatin). Thirty minutes later, the resulting solution was centrifuged at 10,000 RPM at 4 °C for 5 min and the supernatant was collected. The protein concentration of the cell extracts was determined using the bicinchoninic acid (BCA) (Catalog # 786-570, G-Biosciences, Saint Louis, MO, USA) quantification assay. […] Finally, the amount of protein in each blot was quantified using the Image J software (NIH, Bethesda, MD, USA). All data were calculated as a ratio to β-actin."}, "caspase-3": {"test_system": "caspase-3", "test": "Western blot, cleaved caspase-3", "conditions": "OV2008, 5 or 20 µM, vs vehicle", "experimental": "as §1"}, "A549": {"test_system": "A549", "test": "MTT assay, A549", "conditions": "Homo sapiens, A549, 72 h, read-out: IC50 ± SD Lung A549", "quoted_text": "(§2) The concentration of the tested compounds that produced a 50% inhibition of cell growth (IC50) was determined.\n(§3) A panel of cancer cell lines, including cervical (OV2008 and HeLa), breast (MDA-MB-231), lung (A549) and colon (LOVO), prostate (DU145), human embryonic kidney cells (HEK293), human colon fibroblast cells (CRL1459), and Chinese hamster ovary cells (CHO), were grown as adherent monolayers in flasks containing Dulbecco’s modified Eagle medium (DMEM), supplemented with 10% fetal bovine serum (FBS) and 1% penicillin and streptomycin, in a humidified incubator with 5% CO2 at 37 °C.\n(§4) The cells were seeded evenly (180 μL/well) in 96-well plates, at a density of 3000–5000 cells/well and incubated with serial dilutions of the compounds ranging from 0.1 to 100 μM. The MTT dye (4 mg/ml) was added after 72 h of incubation and incubated with the cells for an additional 4 h at 37 °C, allowing the viable cells to biotransform the yellow-colored MTT into dark-blue formazan crystals. Following incubation, the medium was aspirated, and the formazan crystals were dissolved by adding 100 μL of DMSO to each well. Cytation™ 5 and Cytation™ 7 multi-mode detector (Bio Tek Instruments, Winooski, VT, USA) was used to determine the absorbance readings at a wavelength of 570 nm. The IC50 values were determined based on 3 separate experiments, with each experiment carried out in triplicate."}, "OV2008 cells [1]": {"test_system": "OV2008 cells", "test": "Apoptosis and mitochondrial membrane potential (MitoTracker Red / Alexa Fluor 488 annexin V)", "conditions": "24 h; for percentage of apoptotic cells in quadrant II (Q2): vehicle 8.41%; for percentage of live cells in quadrant I (Q1): vehicle 90.86%", "experimental": "MitoTracker® Red and Alexa Fluor 488 annexin V kits for flow cytometry (Molecular Probes Inc., Eugene, OR, USA) were used to determine the mitochondrial membrane potential and apoptosis, respectively, in OV2008 cells, as previously described. OV2008 cells were seeded in 6-well plates and incubated with the vehicle, 5 or 20 μM of DML6 for 24 h. The following day, the cells were trypsinized using 0.25% trypsin, 2.21 mM EDTA, 1×, counted and 4 μL of 10 μM MitoTracker® Red working solution was added to 1 mL of the harvested cells. The cells were incubated at 37 °C with 5% CO2 for 30 min. The cells were washed with ice-cold phosphate-buffered saline (PBS), followed by cell resuspension in 100 μL of the annexin binding buffer. The cell suspensions were then incubated with 5 μL of Alexa Fluor 488 annexin V for 15 min, followed by adding 400 μL of the annexin-binding buffer. Finally, flow cytometry was used to detect the fluorescence of stained cells at the following excitation/emission maximum: Alexa Fluor® 488 annexin V: 499/521 nm; MitoTracker® Red: 579/599 nm, using a flow cytometer BD FACSCanto™ (BD Biosciences, Becton-Dickinson, San Jose, CA, USA) and analyzed using FCS Express 7 plus De Novo software (Glendale, CA, USA)."}, "LOVO": {"test_system": "LOVO", "test": "MTT assay, LOVO", "conditions": "Homo sapiens, LoVo, 72 h, read-out: IC50 ± SD Colon LOVO", "quoted_text": "as §2, §3, §4"}, "Bcl-2": {"test_system": "Bcl-2", "test": "Western blot, Bcl-2", "conditions": "OV2008, 20 μM, 24 h, vs vehicle", "experimental": "as §1"}, "[2]": {"test_system": "human colon fibroblast cells (CRL1459)", "test": "MTT assay, CRL1459", "conditions": "72 h", "quoted_text": "as §2, §3\nThe cells were seeded evenly (180 μL/well) in 96-well plates, at a density of 3000–5000 cells/well and incubated with serial dilutions of the compounds ranging from 0.1 to 100 μM. […] Cytation™ 5 and Cytation™ 7 multi-mode detector (Bio Tek Instruments, Winooski, VT, USA) was used to determine the absorbance readings at a wavelength of 570 nm. The IC50 values were determined based on 3 separate experiments, with each experiment carried out in triplicate. The selectivity of the compounds was determined by comparing their IC50 values in cervical cancer compared to the normal epithelial cell lines, HEK293, CHO, and CRL1459."}, "OV2008 cells [3]": {"test_system": "OV2008 cells", "test": "IncuCyte Cytotox green assay", "conditions": "OV2008, up to 72 h, vs vehicle", "text": "The IncuCyte cytotox green reagent (Catalog # 4633, Essence BioScience, Ann Arbour, MI, USA) was used for real time quantification of dead OV2008 cells as previously described. This dye will only penetrate into cells with non-intact membranes (dead or non-viable cells). As the cells die, the increase in cell membrane permeability allows the reagent to enter the nucleus and bind to DNA, which emits green fluorescence at an excitation maximum of 491 nm and emission maximum of 509 nm. OV2008 cells were seeded (100 µL/well) in a 96-well plate and incubated overnight. The following day, DML6 (0.1–100 μM) was prepared at 3X the final assay concentrations in diluted IncuCyte™ Cytotox Reagent and added to each well (50 µL/well). The cells were immediately placed in the IncuCyte® S3 Live-Cell Analysis System (Essen BioScience, Ann Arbor, MI, USA) and images were taken every 2 h up to 72 h and analyzed using the integrated IncuCyte S3 software version 2020B (Essen BioScience, Ann Arbor, MI, USA)."}, "Bak": {"test_system": "Bak", "test": "Western blot, Bak", "conditions": "OV2008, 5 and 20 μM, 24 h, vs vehicle", "experimental": "as §1"}}, "data": [{"smiles": "CN(C)c1ccc(/C=C/C(=O)c2ccc(Cl)cc2Cl)cc1", "note": "[DML6, (E)-1-[2,4-dichlorophenyl]-3-(4-(dimethylamino)phenyl)prop-2-en-1-one]", "values": [{"measurement": "expression of the pro-apoptotic protein Bax", "setting": "Bax", "result": "significantly increased the expression"}, {"measurement": "cleavage (activation) of caspase-3", "setting": "caspase-3", "result": "significantly increased the cleavage"}, {"measurement": "IC50", "setting": "A549", "result": "84.9 ± 21.4", "unit": "µM"}, {"measurement": "percentage of apoptotic cells in quadrant II (Q2)", "setting": "OV2008 cells [1]; 5 µM", "result": 41.38, "unit": "%"}, {"measurement": "percentage of live cells in quadrant I (Q1)", "setting": "OV2008 cells [1]; 5 µM", "result": 53.39, "unit": "%"}, {"measurement": "percentage of apoptotic cells in quadrant II (Q2)", "setting": "OV2008 cells [1]; 20 µM", "result": 73.67, "unit": "%"}, {"measurement": "percentage of live cells in quadrant I (Q1)", "setting": "OV2008 cells [1]; 20 µM", "result": 22.37, "unit": "%"}, {"measurement": "IC50", "setting": "LOVO", "result": "65 ± 49.5", "unit": "µM"}, {"measurement": "levels of the anti-apoptotic protein Bcl-2", "setting": "Bcl-2", "result": "significantly decreased"}, {"measurement": "cytotoxicity in normal cells, CRL1459", "setting": "[2]", "result": "did not produce significant cytotoxicity"}, {"measurement": "Cytotox green fluorescent signal (dead cells) over time", "setting": "OV2008 cells [3]", "result": "increased significantly"}, {"measurement": "expression of the pro-apoptotic protein Bak", "setting": "Bak", "result": "significantly increased the expression"}]}]}
